The record followed here is patent US11090304B2 (Amgen Inc., priority 2018, dated 2021).

Read-outs that look alike come from different tables or passages of the source.

The target of assay [1] is GDP-bound KRAS protein (aa 1-169), containing both G12C and C118A amino acid substitutions (Homo sapiens, UniProt P01116, C118A/G12C). Briefly: Coupled nucleotide exchange assay (SOS-mediated, AlphaScreen). The class given is biochemical. As to conditions: 5 min compound pre-incubation. In general terms: Alpha assays give light when donor and acceptor beads are brought close together.
GDP-bound KRAS protein (aa 1-169), containing both G12C and C118A amino acid substitutions, sequence (P01116 1-169 isoform P01116-2 G12C/C118A): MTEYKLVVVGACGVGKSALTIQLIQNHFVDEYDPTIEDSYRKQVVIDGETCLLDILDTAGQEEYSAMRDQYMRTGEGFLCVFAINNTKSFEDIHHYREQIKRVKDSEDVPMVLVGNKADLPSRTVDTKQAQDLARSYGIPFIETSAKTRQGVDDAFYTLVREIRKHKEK

Assay [2] relates to Phosphorylation of ERK1/2 in MIA PaCa-2 cells. The assay is described as follows: Phospho-ERK1/2 MSD assay in MIA PaCa-2 cells. The assay is classed as cell-based. As to conditions: read-out: p-ERK IC50 (2 h; MIA PaCa-2), 2 h compound treatment. On the procedure:
For compounds in Table 89, the following assay conditions were employed:
Phospho-ERK1/2 MSD Assay:
Sixteen hours prior to compound treatment, MIA PaCa-2 or A549 cells were seeded in 96-well cell culture plates at a density of 25,000 cells/well and incubated at 37° C., 5% CO2. A compound dose-response titration was diluted in growth media, added to appropriate wells of a cell culture plate, and then incubated at 37° C., 5% CO2 for 2 or 4 hours (see Table 15). Following compound treatment, cells were stimulated with 10 ng/mL EGF (Roche 11376454001) for 10 min, washed with ice-cold Dulbecco's phosphate-buffered saline, no Ca^2+ or Mg^2+ (ThermoFisher Scientific 14190144), and then lysed in RIPA buffer (50 mM Tris-HCl pH 7.5, 1% Igepal, 0.5% sodium deoxycholate, 150 mM NaCl, and 0.5% sodium dodecyl sulfate) containing protease inhibitors (Roche 4693132001) and phosphatase inhibitors (Roche 4906837001). Phosphorylation of ERK1/2 in compound-treated lysates was assayed using Phospho-ERK1/2 Whole Cell Lysate kits (Meso Scale Discovery K151DWD) according to the manufacturer's protocol. Assay plates were read on a Meso Scale Discovery Sector Imager 6000, and data were analyzed using a 4-parameter logistic model to calculate IC50 values.

As a reminder, the IC50 is the midpoint of a concentration-inhibition curve. In the case of `C=CC(=O)N1C[C@H](C)N(c2nc(=O)n(-c3c(C)ccnc3C(C)C)c3nc(-c4c(N)cccc4F)c(F)cc23)[C@@H](C)C1` (atropisomer, axis not shown; (M)) [Example 72-13, (M)-7-(2-amino-6-fluorophenyl)-4-((2S,6S)-2,6-dimethyl-4-(2-propenoyl)-1-piperazinyl)-6-fluoro-1-(4-methyl-2-(2-propanyl)-3-pyridinyl)pyrido[2,3-d]pyrimidin-2(1H)-one], the “Coupled exchange IC50 (5 min)” value in assay [1] is 0.021 | nda μM. The IC50 in assay [2] (Homo sapiens, MIA PaCa-2, 2 h) is 12 nM.
For `C=CC(=O)N1C[C@H](C)N(c2nc(=O)n(-c3c(C)ccnc3C(C)C)c3nc(-c4ccccc4F)c(F)cc23)[C@@H](C)C1` (atropisomer, axis not shown; (M)) [Example 72-14, (M)-4-((2S,6S)-2,6-dimethyl-4-(2-propenoyl)-1-piperazinyl)-6-fluoro-7-(2-fluorophenyl)-1-(4-methyl-2-(2-propanyl)-3-pyridinyl)pyrido[2,3-d]pyrimidin-2(1H)-one] the same measures were 0.081 | nda μM and 55 nM.
For `C=CC(=O)N1CCN(c2nc(=O)n(-c3c(C)ccnc3C(C)C)c3nc(-c4c(N)cccc4F)c(Cl)cc23)[C@@H](C)C1` (atropisomer, axis not shown; (M)) [Example 73-1, (M)-7-(2-Amino-6-fluorophenyl)-6-chloro-1-(4-methyl-2-(2-propanyl)-3-pyridinyl)-4-((2S)-2-methyl-4-(2-propenoyl)-1-piperazinyl)pyrido[2,3-d]pyrimidin-2(1H)-one], the values for the IC50 in assay [1] (read-out: Coupled exchange IC50 (5 min)) and in assay [2] were 12 nM and 14 nM, respectively.
With `C=CC(=O)N1CCN(c2nc(=O)n(-c3c(C)ccnc3C(C)C)c3nc(-c4cc(F)ccc4F)c(Cl)cc23)[C@@H](C)C1` (atropisomer, axis not shown; (M)) [Example 73-2, (M)-6-chloro-7-(2,5-difluorophenyl)-1-(4-methyl-2-(2-propanyl)-3-pyridinyl)-4-((2S)-2-methyl-4-(2-propenoyl)-1-piperazinyl)pyrido[2,3-d]pyrimidin-2(1H)-one], in assay [1], the “Coupled exchange IC50 (5 min)” value was 0.067 | nda μM. For the same compound, the IC50 in assay [2] (Homo sapiens, MIA PaCa-2, 2 h) stood at 101 nM.
Consider `C=CC(=O)N1CCN(c2nc(=O)n(-c3c(C)ccnc3C(C)C)c3nc(-c4cc(C)ccc4F)c(Cl)cc23)[C@@H](C)C1` (atropisomer, axis not shown; (M)) [Example 73-3, (M)-6-chloro-7-(2-fluoro-5-methylphenyl)-1-(4-methyl-2-(2-propanyl)-3-pyridinyl)-4-((2S)-2-methyl-4-(2-propenoyl)-1-piperazinyl)pyrido[2,3-d]pyrimidin-2(1H)-one], for which the “Coupled exchange IC50 (5 min)” value in assay [1] is on record as 0.031 | nda μM. The IC50 in assay [2] (Homo sapiens, MIA PaCa-2, 2 h) is 40 nM.
`C=CC(=O)N1CCN(c2nc(=O)n(-c3c(C)ccnc3C(C)C)c3nc(-c4cc(Cl)ccc4F)c(Cl)cc23)[C@@H](C)C1` (atropisomer, axis not shown; (M)) [Example 73-4, (M)-6-chloro-7-(5-chloro-2-fluorophenyl)-1-(4-methyl-2-(2-propanyl)-3-pyridinyl)-4-((2S)-2-methyl-4-(2-propenoyl)-1-piperazinyl)pyrido[2,3-d]pyrimidin-2(1H)-one]: the “Coupled exchange IC50 (5 min)” value in assay [1] was 0.047 | nda μM. Besides, in assay [2] (Homo sapiens, MIA PaCa-2, 2 h), the IC50 amounted to 62 nM.
For `C=CC(=O)N1CCN(c2nc(=O)n(-c3c(C)ccnc3C(C)C)c3nc(-c4cc(C#N)ccc4F)c(Cl)cc23)[C@@H](C)C1` (atropisomer, axis not shown; (M)) [Example 73-5, (M)-3-(6-chloro-1-(4-methyl-2-(2-propanyl)-3-pyridinyl)-4-((2S)-2-methyl-4-(2-propenoyl)-1-piperazinyl)-2-oxo-1,2-dihydropyrido[2,3-d]pyrimidin-7-yl)-4-fluorobenzonitrile] the same measures were 0.184 | nda μM and 228 nM.
Consider `C=CC(=O)N1CCN(c2nc(=O)n(-c3c(C)ccnc3C(C)C)c3nc(-c4cc(OC)ccc4F)c(Cl)cc23)[C@@H](C)C1` (atropisomer, axis not shown; (M)) [Example 73-6, (M)-6-chloro-7-(2-fluoro-5-methoxyphenyl)-1-(4-methyl-2-(2-propanyl)-3-pyridinyl)-4-((2S)-2-methyl-4-(2-propenoyl)-1-piperazinyl)pyrido[2,3-d]pyrimidin-2(1H)-one], for which, in assay [1], the “Coupled exchange IC50 (5 min)” value is listed as 0.059 | nda μM. In addition, the IC50 in assay [2] (Homo sapiens, MIA PaCa-2, 2 h) worked out at 104 nM.
Turning to `C=CC(=O)N1CCN(c2nc(=O)n(-c3c(C)ccnc3C(C)C)c3nc(-c4cc(OC(F)(F)F)ccc4F)c(Cl)cc23)[C@@H](C)C1` (atropisomer, axis not shown; (M)) [Example 73-7, (M)-6-chloro-7-(2-fluoro-5-(trifluoromethoxy)phenyl)-1-(4-methyl-2-(2-propanyl)-3-pyridinyl)-4-((2S)-2-methyl-4-(2-propenoyl)-1-piperazinyl)pyrido[2,3-d]pyrimidin-2(1H)-one], the “Coupled exchange IC50 (5 min)” value in assay [1] is 0.241 | nda μM. Besides, the IC50 in assay [2] (Homo sapiens, MIA PaCa-2, 2 h) was found to be 375 nM.
For `C=CC(=O)N1CCN(c2nc(=O)n(-c3c(C)ccnc3C(C)C)c3nc(-c4cc(C(F)(F)F)ccc4F)c(Cl)cc23)[C@@H](C)C1` (atropisomer, axis not shown; (M)) [Example 73-8, (M)-6-chloro-7-(2-fluoro-5-(trifluoromethyl)phenyl)-1-(4-methyl-2-(2-propanyl)-3-pyridinyl)-4-((2S)-2-methyl-4-(2-propenoyl)-1-piperazinyl)pyrido[2,3-d]pyrimidin-2(1H)-one] the same measures were 0.236 | nda μM and 653 nM.
For `C=CC(=O)N1CCN(c2nc(=O)n(-c3c(C)ccnc3C(C)C)c3nc(-c4cc(C5CC5)ccc4F)c(Cl)cc23)[C@@H](C)C1` (atropisomer, axis not shown; (M)) [Example 73-9, (M)-6-chloro-7-(5-cyclopropyl-2-fluorophenyl)-1-(4-methyl-2-(2-propanyl)-3-pyridinyl)-4-((2S)-2-methyl-4-(2-propenoyl)-1-piperazinyl)pyrido[2,3-d]pyrimidin-2(1H)-one] the same measures were 0.06 | nda μM and 281 nM.
For `C=CC(=O)N1CCN(c2nc(=O)n(-c3c(C)ccnc3C(C)C)c3nc(-c4cc(C(=O)NC5CC5)ccc4F)c(Cl)cc23)[C@@H](C)C1` (atropisomer, axis not shown; (M)) [Example 73-10, (M)-3-(6-chloro-1-(4-methyl-2-(2-propanyl)-3-pyridinyl)-4-((2S)-2-methyl-4-(2-propenoyl)-1-piperazinyl)-2-oxo-1,2-dihydropyrido[2,3-d]pyrimidin-7-yl)-N-cyclopropyl-4-fluorobenzamide] the same measures were 0.385 | nda μM and 544 nM.
For `C=CC(=O)N1C[C@@H](C)N(c2nc(=O)n(-c3c(C)ccnc3C(C)C)c3nc(-c4c(N)cccc4F)c(Cl)cc23)[C@@H](C)C1` (atropisomer, axis not shown; (M)) [Example 73-12, (M)-7-(2-amino-6-fluorophenyl)-6-chloro-4-(cis-2,6-dimethyl-4-(2-propenoyl)-1-piperazinyl)-1-(4-methyl-2-(2-propanyl)-3-pyridinyl)pyrido[2,3-d]pyrimidin-2(1H)-one], the “Coupled exchange IC50 (5 min)” value in assay [1] was 0.01 | nda μM. For the same compound, in assay [2] (Homo sapiens, MIA PaCa-2, 2 h), the IC50 was 10 nM.
